Tests used:
WT STING [1] = target: T1, WT STING (Homo sapiens, UniProt Q86WV6, H232R); experiment: Digitonin assay using 293T wtSTING-FL reporter cells; type: cell-based; settings: 293T wtSTING-FL cells; 30 minutes in Digitonin buffer, then 5 hours; ISRE firefly luciferase reporter; 8-point dose-response curve; read-out: Digitonin assay EC50 (μmol · l^−1) WT STING
Excerpt: ISRE Reporter Plasmid (pGL64.27-4xISRE)
Two complementary oligonucleotides of the sequence […] […] […] […] […] The oligonucleotides were mixed in equal molar amounts, hybridized, and cleaved by restriction endonucleases HindIII (cat. #. R0104S, NEB, Ipswich, USA) and BglII (cat. #R0144S, NEB, Ipswich, USA). Ultimately, they were ligated into plasmid pGL4.27 (cat. #E6651, Promega, Madison, USA) linearized with the same enzymes. As result the sequence with four ISRE sites was placed upstream of the minimum promoter of firefly luciferase reporter gene.
After 5 minutes incubation at room temperature (RT), 250 μL of the mixture was added dropwise to the cells in one well. Cells were incubated 36 hours at 37° C. with 5% CO2, and then detached with 0.05% Trypsin and 0.22 g/L EDTA (both cat. #L0941, Biowest, Riverside, USA).
Transfected cells were seeded onto poly-D-lysine coated six well plates at density 50,000 cells per 1 cm^2 in DMEM medium with high glucose containing 10% heat inactivated FBS, 30 g/mL blasticidin (cat. #ant-bl-05, InvivoGen, San Diego, USA), 0.06 mg/ml Penicillin G and 0.1 mg/ml Streptomycin Sulfate (both cat. #. L0018, Biowest, Riverside, USA). The medium was replenished every 3-4 days until visible colonies of cells resistant to blasticidin were formed.
Blasticidin resistant cells stably expressing WT STING were further transfected with […] plasmid following the same procedure as described above. […] Homogeneous culture of stably double transfected cells was prepared by limiting dilution of cells in 96 well plates and wells with cells were selected that originated from a single cell.
The medium was removed next day and three fold serial dilutions of compounds in Digitonin buffer containing 50 mmol·l^−1 HEPES (cat. #H3375, Sigma Aldrich, Czech Republic) pH 7.0, 100 mmol·l^−1 KCl, 3 mmol·l^−1 MgCl2, 0.1 mmol·l^−1 DTT (cat. #D0632, Sigma Aldrich, Czech Republic), 85 mmol·l^−1 Sucrose (cat. #S7903, Sigma Aldrich, Czech Republic), 0.2% BSA (cat. #A2153, Sigma Aldrich, Czech Republic), 1 mmol·l^−1 ATP (cat. #A1852, Sigma Aldrich, Czech Republic), 0.1 mmol·l^−1 GTP (cat. #G8877, Sigma Aldrich, Czech Republic), and 10 μg/mL Digitonin A (cat. #D141, Sigma Aldrich, Czech Republic) were added to the cells. The buffer was removed after 30 minutes incubation at 37° C. with 5% CO2, the cells were washed once with 100 μl of cultivation medium, and 100 μl of medium was added to each well. The plates with cells were incubated for 5 hours at 37° C. with 5% CO2, 50 μl of the medium was removed and 30 μl of ONE-Glo™ Luciferase Assay System reagent (cat. #E6120, Promega, Madison, USA) was added to each well. Luminescence was read on Synergy H1 (Biotek, Winooski, USA).
Target sequence in this assay (Q86WV6 whole entry H232R): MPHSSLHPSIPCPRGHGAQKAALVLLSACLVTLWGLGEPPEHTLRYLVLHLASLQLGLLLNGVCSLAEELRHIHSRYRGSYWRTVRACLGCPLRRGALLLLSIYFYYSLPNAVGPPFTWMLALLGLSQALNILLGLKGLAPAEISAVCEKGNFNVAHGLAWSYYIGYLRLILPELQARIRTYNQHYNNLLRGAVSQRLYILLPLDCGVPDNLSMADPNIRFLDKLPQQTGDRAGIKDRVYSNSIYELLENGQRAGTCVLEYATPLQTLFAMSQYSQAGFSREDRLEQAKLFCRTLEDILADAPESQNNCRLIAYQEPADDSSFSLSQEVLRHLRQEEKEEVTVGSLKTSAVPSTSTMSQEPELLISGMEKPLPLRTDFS

WT STING [2] = target: T1, WT STING; experiment: Differential Scanning Fluorimetry with WT STING; type: binding; parameters: truncated human WT STING or AQ STING (amino acid residues 140-343); 8xHis (N, cleaved yes); SUMO (N, cleaved yes); made in house; host or cells: E. coli Rosetta-gami B (DE3); settings: thermal shift vs STING apoprotein, 150 μM CDN, 0.1 mg/ml truncated human WT STING, SYPRO Orange; for ΔTm at 150 µM: read-out: DSF ΔTm (° C.) WT STING
Experimental: (§1) WT STING and AQ STING Proteins
(§2) Purified PCR products were cleaved with restriction enzymes BamHI (cat. #R0136S, NEB, Ipswich, USA) and NotI (cat. #R0189S, NEB, Ipswich, USA) and cloned into the pSUMO vector linearized with the identical enzymes.
(§3) The resin was poured into a chromatography column, washed with 50 ml buffer A (50 mmol·l^−1 TrisCl (pH 8.0), 800 mmol·l^−1 NaCl, 3 mmol·l^−1 β-mercaptol; 10% glycerol; 20 mmol·l^−1 imidazole) and 8-His-SUMO tagged STING proteins were eluted with 15 ml buffer A containing 300 mmol·l^−1 imidazole. […] Proteins were concentrated with Amicon® Ultra-15 10 K device (cat. #UFC901008, Merck Millipore, Billerica, USA) and flash frozen in liquid N2.
(§4) Differential Scanning Fluorimetry with WT STING and AQ STING
(§5) 20 μL solutions of the reaction mixtures were pipetted in triplicates into 96 well optical reaction plates and thermal denaturation of samples were performed on real time PCR cycler (LightCycler® 480 Instrument II—Roche, Basel, Switzerland). The first derivative of the thermal denaturation curves was performed to calculate denaturing temperatures of STING—CDN complexes and STING apoproteins. The thermal shift for each CDN was calculated by subtracting the average denaturing temperature of STING apoprotein from the average denaturing temperature of STING CDN complex.
Target sequence in this assay (Q86WV6 140-343 H232R): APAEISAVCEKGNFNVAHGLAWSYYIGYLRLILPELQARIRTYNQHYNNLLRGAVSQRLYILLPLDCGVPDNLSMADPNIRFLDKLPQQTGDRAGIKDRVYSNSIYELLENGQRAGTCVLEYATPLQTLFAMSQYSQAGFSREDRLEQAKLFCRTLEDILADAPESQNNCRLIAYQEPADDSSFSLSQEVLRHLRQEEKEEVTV

AQ STING (G230A-R293Q) = target: T2, AQ STING (G230A-R293Q) (Homo sapiens, UniProt Q86WV6, G230A/H232R/R293Q); experiment: Differential Scanning Fluorimetry with AQ STING; type: binding; settings: thermal shift vs STING apoprotein, 150 μM CDN, 0.1 mg/ml truncated human AQ STING, SYPRO Orange; for ΔTm at 150 µM: read-out: DSF ΔTm (° C.) AQ STING
T2 construct: truncated human WT STING or AQ STING (amino acid residues 140-343); 8xHis (N, cleaved yes); SUMO (N, cleaved yes); made in house; host or cells: E. coli Rosetta-gami B (DE3)
Experimental: as §1, §2, §3, §4, §5

T2 sequence (Q86WV6 140-343 G230A/H232R/R293Q): as the sequence (Q86WV6 140-343 H232R) above, with G91A, R154Q counted along it

Compound	EC50 (WT STING [1]) [nM]	DSF ΔTm (° C.) WT STING (WT STING [2]) [°C]	DSF ΔTm (° C.) AQ STING (AQ STING (G230A-R293Q)) [°C]	ΔTm at 150 µM (WT STING [2]) [°C]	ΔTm at 150 µM (AQ STING (G230A-R293Q)) [°C]
1R,6R,8R,9R,10R,15R,17R,18S)-8,17-bis(6-amino-9H-purin-9-yl)-9-fluoro-3,12,18-trihydroxy-2,4,7,11,14,16-hexaoxa-3λ^5,12λ^5-diphosphatricyclo[13.2.1.0^6,^10]octadecane-3,12-dione [Compound 34]	700	2.6	8.5		
Nc1nc2c(ncn2[C@@H]2O[C@@H]3COP(=O)(O)O[C@@H]4[C@H](O)[C@@H](COP(=O)(O)O[C@@H]2[C@@H]3O)O[C@H]4n2cnc3c(N)ncnc32)c(=O)[nH]1 [2′2′-cGAMP, reference compound]	30	11.5	19.4		
Nc1ncnc2c1ncn2[C@@H]1O[C@@H]2COP(=O)(O)O[C@H]3[C@@H](O)[C@H](n4cnc5c(N)ncnc54)O[C@@H]3COP(=O)(O)O[C@H]2[C@H]1O [3′3′c-di-AMP, reference compound]	300	2.6	9.3		
Nc1nc2c(ncn2[C@@H]2O[C@@H]3COP(=O)(O)O[C@H]4[C@@H](O)[C@H](n5cnc6c(=O)[nH]c(N)nc65)O[C@@H]4COP(=O)(O)O[C@H]3[C@H]2O)c(=O)[nH]1 [3′3′c-di-GMP, reference compound]	5800	2.6	7.7		
Nc1ncnc2c1ncn2[C@@H]1O[C@@H]2OCP(=O)(O)O[C@@H]3[C@H](O)[C@@H](OCP(=O)(O)O[C@H]2[C@H]1O)O[C@H]3n1cnc2c(N)ncnc21 [Compound 30, (1R,6R,8R,9R,10S,15R,17R,18S)-8,17-bis(6-amino-9H-purin-9-yl)-3,9,12,18-tetrahydroxy-2,5,7,11,14,16-hexaoxa-3λ^5,12λ^5-diphosphatricyclo[13.2.1.0^6,^10]octadecane-3,12-dione]	6700			0.8	6.4
Nc1ncnc2c1ncn2[C@@H]1O[C@@H]2COP(=O)(O)O[C@@H]3[C@H](O)[C@@H](COCP(=O)(O)O[C@H]2[C@H]1O)O[C@H]3n1cnc2c(N)ncnc21 [Compound 31]	12500			0.5	5.7
Nc1ncnc2c1ncn2[C@@H]1O[C@@H]2COCP(=O)(O)O[C@@H]3[C@H](O)[C@@H](COP(=O)(O)O[C@H]2[C@H]1O)O[C@H]3n1cnc2c(N)ncnc21 [Compound 32, (1R,6S,7R,8R,10R,16R,17R,19R)-8,17-bis(6-amino-9H-purin-9-yl)-4,7,14,19-tetrahydroxy-3,5,9,12,15,18-hexaoxa-4λ^5,14λ^5-diphosphatricyclo[14.2.1.0^6,^10]nonadecane-4,14-dione]	8000			0.5	5.3
Nc1ncnc2c1ncn2[C@@H]1O[C@@H]2COP(=O)(O)O[C@@H]3[C@H](O)[C@@H](COCP(=O)(O)O[C@H]2[C@H]1F)O[C@H]3n1cnc2c(N)ncnc21 [Compound 33, (1R,6R,8R,9R,10R,16R,18R,19R)-8,18-bis(6-amino-9H-purin-9-yl)-9-fluoro-3,12,19-trihydroxy-2,4,7,11,14,17-hexaoxa-3λ^5,12λ^5-diphosphatricyclo[14.2.1.0^6,^10]nonadecane-3,12-dione]	2600			1.6	8.3
Nc1nc2c(ncn2[C@@H]2C[C@@H]3COP(=O)(O)O[C@@H]4[C@@H](OCP(=O)(O)O[C@@H]2[C@@H]3O)O[C@@H](n2cnc3c(N)ncnc32)[C@@H]4O)c(=O)[nH]1 [Compound 36, (1S,6R,8R,9R,10S,15R,17R,18R)-17-(2-amino-6-oxo-6,9-dihydro-1H-purin-9-yl)-8-(6-amino-9H-purin-9-yl)-3,9,12,18-tetrahydroxy-2,5,7,11,13-pentaoxa-3λ^5,12λ^5-diphosphatricyclo[13.2.1.0^6,10]octadecane-3,12-dione]	180			5.8	14.2
